Earlier results, collected in publication PMC7465353, “Antioxidant Effects of PS5, a Peptidomimetic of Suppressor of Cytokine Signaling 1, in Experimental Atherosclerosis” (Antioxidants, 2020).

System: VSMCs

Substance: KIR peptide: peptide encompassing residues 52–67, i.e., kinase inhibitory region (KIR) of SOCS1 (DTHFRTFRSHADYRRI; UniProt O15524 52-67, looked up, fragment)
- VSMC migration, wound healing: significantly diminished the migration and proliferation
